Measured values taken from article PMC10706121, “Bioactive Polyketides from the Natural Complex of the Sea Urchin-Associated Fungi Penicillium sajarovii KMM 4718 and Aspergillus protuberus KMM 4747” (International Journal of Molecular Sciences, 2023).
“Also recorded” adds a separate entry of the source. Like-named read-outs stand apart in the source and are kept apart here.

Experiments:
[1] = system: S. aureus-infected H9c2 cardiomyocytes; test: Staphylococcus aureus-induced infection of H9c2 cardiomyocytes (in vitro model of infectious myocarditis, MTT); assay type: cell-based, rat; conditions: 1 and 10 µM
Protocol: The H9c2 cells were seeded at concentrations of 3 × 10^3 cell/well. After 24 h, the cell culture media was changed with an S. aureus bacterial suspension (10^2 CFU/mL) prepared in full DMEM culture media. The investigated compounds at concentrations of 1 and 10 µM were added after 1 h and the cells were incubated for 48 h. The S. aureus suspension with compounds at the same concentrations was used as a control. MTT reagent was added to all wells and formazan production was detected with the microplate reader MultiscanFC (ThermoLabsystems Inc., Beverly, MA, USA). The viability of S. aureus-infected cells was calculated as:Viability, relative units = (OD cells+Sa +comp − OD Sa+comp)/(OD cells+Sa − OD Sa)

[2] = system: human hepatocarcinoma HepG2 cells; test: Cell viability assay (MTT), cytotoxic activity; assay type: cell-based; conditions: for decrease of HepG2 cell viability: 100 µM; for IC50: 24 h, MTT, read-out: HepG2 IC50 (cytotoxic effect)
Protocol: (§1) The HepG2 and H9c2 cells were cultured in DMEM medium (Biolot, St. Petersburg, Russia) containing 10% fetal bovine serum (Biolot, St. Petersburg, Russia) and 1% penicillin/streptomycin (Biolot, St. Petersburg, Russia) at 37 °C in a humidified atmosphere with 5% (v/v) CO2.
(§2) The HepG2 and H9c2 cells were seeded at concentrations of 5× 10^3 and 3×10^3 cell/well, respectively, and the experiments were started after 24 h. The compounds at concentrations up to 100 µM were added into the wells for 24 h, and the viability of the cells was measured by an MTT (3-(4,5-dimethylthiazol-2-yl)-2,5-diphenyltetrazolium bromide) assay, which was performed according to the manufacturer’s instructions (Sigma-Aldrich, Munich, Germany). All compounds were dissolved with DMSO so that the final concentration of DMSO in the cell culture was not more than 1%. Moreover, DMSO was used as a control. The absorbance of the resulting solution was measured at 570 nm with a microplate reader MultiscanFC (ThermoLabsystems Inc., Beverly, MA, USA). The results are presented as a percent of the control data and calculated IC50.

[3] = Cell viability assay (MTT), cytotoxic activity; assay type: cell-based, human; conditions: 24 h, MTT; for viability at 24 h, 10 µM / viability at 24 h, 100 µM: percent of control
Protocol: as §1, §2

[4] = system: Candida albicans KMM 455; test: Antimicrobial activity, inhibition of microbial growth (OD620); assay type: cell-based; conditions: for inhibition at 100 µM: Candida albicans
Protocol: (§3) The yeast-like fungi of Candida albicans KMM 455 and bacterial strains Staphylococcus aureus ATCC 21027 and Escherichia coli VKPM (B-7935) (Collection of Marine Microorganisms PIBOC FEB RAS) were cultured on solid-medium Mueller Hinton broth with agar (16.0 g/L) in a Petri dish at 37 °C for 24 h.
(§4) The assays were performed in 96-well microplates in appropriate Mueller Hinton broth. Each well contained 90 µL of bacterial or of a yeast-like fungi suspension (10^9 CFU/mL). Then, 10 µL of a compound diluted at concentrations ranging from 1.5 to 100.0 µM using a 2-fold dilution was added (DMSO concentration < 1%). Culture plates were incubated overnight at 37 °C, and the OD620 was measured using a Multiskan FS spectrophotometer (Thermo Scientific Inc., Beverly, MA, USA). The antibiotic gentamicin and antifungal agent nitrofungin were used as positive controls at 1 mg/mL; 1% DMSO in PBS served as a negative control.

[5] = system: Staphylococcus aureus ATCC 21027; test: as above; assay type: cell-based; conditions: for inhibition at 100 µM: Staphylococcus aureus
Protocol: as §3, §4

[6] = system: Escherichia coli VKPM (B-7935); test: as above; assay type: cell-based; conditions: for inhibition at 100 µM: Escherichia coli, read-out: Inhibition of Microbial Growth, E. coli
Protocol: as §3, §4

[7] = target: T1, urease from Canavalia ensiformis (Canavalia ensiformis, UniProt P07374); test: Urease inhibition assay (indophenol method, cell-free); assay type: biochemical; conditions: for effect on urease activity: at concentrations of up to 100 µM
T1 construct: purchased Sigma
Protocol: A reaction mixture consisting of 25 µL of enzyme solution (urease from Canavalia ensiformis, Sigma, 1U final concentration) and 5 µL of test compounds dissolved in water (10–300.0 µM final concentration) was preincubated at 37 °C for 60 min in 96-well plates. Then, 55 µL of phosphate-buffered solution with […] of urea was added to each well and incubated at 37 °C for 10 min. The urease inhibitory activity was estimated by determining ammonia production using the indophenol method. Briefly, 45 µL of phenol reagent (1% w/v phenol and 0.005% w/v sodium nitroprusside) and 70 µL of alkali reagent (0.5% w/v NaOH and 0.1% active chloride NaClO) were added to each well. The absorbance was measured after 50 min at 630 nm using a MultiskanFS microplate reader (Thermo Scientific Inc., Beverly, MA, USA). All reactions were performed in triplicate in a final volume of 200 µL. The pH was maintained at 7.3–7.5 in all assays. DMSO 5% was used as a positive control.

[8] = system: normal rat cardiomyocyte H9c2 cells; test: Cell viability assay (MTT), cytotoxic activity; assay type: cell-based; conditions: for decrease of H9c2 cell viability: 100 µM; for IC50: 24 h, MTT, read-out: H9c2 IC50 (cytotoxic effect)
Protocol: as §1, §2

[9] = human, read-out: HepG2 Cell Viability
[10] = human, read-out: HepG2 IC50 (cytotoxic effect)
[11] = rat, read-out: H9c2 Cell Viability
[12] = rat, read-out: H9c2 IC50 (cytotoxic effect)
[13] = KMM455, read-out: Inhibition of Microbial Growth, C. albicans
[14] = ATCC21027, read-out: Inhibition of Microbial Growth, S. aureus
[15] = human, HepG2 cells (human hepatocarcinoma), read-out: HepG2 IC50 (cytotoxic effect)
[16] = human, HepG2 hepatocarcinoma cells
[17] = rat, H9c2 cells (normal rat cardiomyocytes), read-out: H9c2 IC50 (cytotoxic effect)
[18] = KMM455, compounds tested at 100 µM, read-out: Inhibition of Microbial Growth, C. albicans
[19] = ATCC21027, compounds tested at 100 µM, read-out: Inhibition of Microbial Growth, S. aureus

T1 sequence (P07374 whole entry, looked up): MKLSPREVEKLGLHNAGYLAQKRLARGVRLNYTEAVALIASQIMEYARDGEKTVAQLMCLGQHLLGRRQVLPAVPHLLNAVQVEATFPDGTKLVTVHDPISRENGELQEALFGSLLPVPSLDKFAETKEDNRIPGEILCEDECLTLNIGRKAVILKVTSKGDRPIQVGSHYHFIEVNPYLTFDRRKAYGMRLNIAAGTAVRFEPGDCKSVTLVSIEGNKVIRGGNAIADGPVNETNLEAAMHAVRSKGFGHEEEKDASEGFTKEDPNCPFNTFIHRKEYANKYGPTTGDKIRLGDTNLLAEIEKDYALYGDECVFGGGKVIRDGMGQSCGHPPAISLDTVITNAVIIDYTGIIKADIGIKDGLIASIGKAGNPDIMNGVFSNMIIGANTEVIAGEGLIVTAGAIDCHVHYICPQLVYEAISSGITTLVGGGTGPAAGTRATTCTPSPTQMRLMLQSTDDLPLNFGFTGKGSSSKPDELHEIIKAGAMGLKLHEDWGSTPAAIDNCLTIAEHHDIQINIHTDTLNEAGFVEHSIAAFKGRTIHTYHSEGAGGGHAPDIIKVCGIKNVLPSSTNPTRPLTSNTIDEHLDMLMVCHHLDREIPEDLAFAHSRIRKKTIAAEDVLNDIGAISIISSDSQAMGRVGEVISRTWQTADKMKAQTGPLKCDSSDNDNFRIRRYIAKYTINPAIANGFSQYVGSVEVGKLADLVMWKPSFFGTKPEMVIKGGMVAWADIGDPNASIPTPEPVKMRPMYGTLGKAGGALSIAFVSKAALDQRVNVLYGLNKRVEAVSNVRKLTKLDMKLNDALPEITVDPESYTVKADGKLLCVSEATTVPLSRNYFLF

| SMILES | effect on the viability of S. aureus-infected H9c2 cardiomyocytes [1] | decrease of HepG2 cell viability [2] | IC50 [7] | decrease of H9c2 cell viability [8] | IC50 at 24 h [3, 15] | viability at 24 h, 10 µM [3, 16] | viability at 24 h, 100 µM [3, 16] | viability at 24 h, 10 µM ([3]; rat, H9c2 cardiomyocyte cells) | viability at 24 h, 100 µM ([3]; rat, H9c2 cardiomyocyte cells) | IC50 at 24 h [3, 17] | inhibition at 100 µM [4, 18] | inhibition at 100 µM [5, 19] | inhibition at 100 µM ([6]; compounds tested at 100 µM) | effect on urease activity [7] | also measured |
| --- | --- | --- | --- | --- | --- | --- | --- | --- | --- | --- | --- | --- | --- | --- | --- |
| CC1=CC(=O)OCC1 [Compound 11, 5,6-dihydro-4-methyl-2H-pyran-2-one] | did not show any statistical effect | 23.4% | 11.4 ± 1 µM |  |  |  |  |  |  |  |  |  |  |  | viability at 24 h, 10 µM [3, 9]: 87.5 ± 5.3%; viability at 24 h, 100 µM [3, 9]: 76.6 ± 2.4%; IC50 at 24 h [3, 10]: > 100 µM; viability at 24 h, 10 µM [3, 11]: 95.9 ± 0.6%; viability at 24 h, 100 µM [3, 11]: 89 ± 2.9%; IC50 at 24 h [3, 12]: > 100 µM; inhibition at 100 µM [4, 13]: < 10%; Inhibition of Microbial Growth, C. albicans ([4]; compounds tested at 100 µM): did not affect; inhibition at 100 µM [5, 14]: < 10%; inhibition at 100 µM [6]: < 10% |
| COC1=CC(=O)C[C@@H](C)[C@]12Oc1c(Cl)c(OC)cc(OC)c1C2=O [Compound 8, griseofulvin, reference compound] |  | 60.1% | 10.1 ± 0.6 µM | 28.4% | 77.8 ± 1.3 µM | 81 ± 2.1% | 39.9 ± 0.7% | 89.8 ± 2.7% | 71.6 ± 3.7% | > 100 µM | < 10% | 11.5 ± 4.3% | 16.8 ± 4.5% |  |  |
| COC1=CC(=O)C[C@@H](C)[C@]12Oc1c(Cl)c(O)cc(OC)c1C2=O [Compound 9, 6-O-desmethylgriseofulvin] |  |  | > 100 µM |  | > 100 µM | 91.5 ± 6.8% | 84.2 ± 3.2% | 97.4 ± 8.1% | 92.9 ± 3.7% | > 100 µM | < 10% | ~23% | ~23% | no effect; also recorded: did not show any effect | Inhibition of Microbial Growth, E. coli ([6]; compounds tested at 100 µM, 100 µM): 23.4 ± 1.8% |
| Cc1cc(O)cc2oc(C[C@H](C)O)cc(=O)c12 [Compound 3, (2′S)-7-hydroxy-2-(2′-hydroxypropyl)-5-methylchromone] |  |  | > 100 µM | 25.7% | > 100 µM | 91.7 ± 1.5% | 101 ± 3.9% | 96.4 ± 2.1% | 74.3 ± 3.2% | > 100 µM | < 10% | 17.7 ± 0.3% | < 10% | no effect; also recorded: did not show any effect |  |
| Cc1cc(O)c(O)c2oc3cc(O)cc(O)c3c(=O)c12 [Compound 7, 1,3,5,6-tetrahydroxy-8-methylxanthone] |  | 42.6 µM | 100 µM |  | ~100 µM | 77.1 ± 1.4% | 57.4 ± 4.2% | 98 ± 0.9% | 52.9 ± 1.5% | ~100 µM | 15.4 ± 2.1% | < 10% | < 10% |  | IC50 [8]: > 100 µM; IC50 [2]: > 100 µM |
| COC1=CC(=O)c2c(O)cc(OC)cc2[C@@]1(C)O [Compound 2, sajaroketide B] | did not show any statistical effect |  | 98.5 ± 0.8 µM | 21.0% | > 100 µM | 87.3 ± 4.1% | 76.9 ± 2.1% | 96 ± 1.9% | 79 ± 3.4% | > 100 µM | < 10% | < 10% | < 10% |  | Inhibition of Microbial Growth, S. aureus ([5]; compounds tested at 100 µM): inactive; Inhibition of Microbial Growth, E. coli ([6]; compounds tested at 100 µM): inactive |
| COC1=CC(=O)c2c(O)cc(O)cc2[C@@]1(C)O [Compound 1, sajaroketide A] |  |  | > 100 µM | 34.6% | > 100 µM | 108 ± 3.2% | 107 ± 3.9% | 83.6 ± 4.4% | 65.4 ± 4.8% | > 100 µM | < 10% | 35.1 ± 0.9% | 25.4 ± 1% | no effect; also recorded: very poor |  |
| Cc1cc(O)cc2oc3cc(O)cc(O)c3c(=O)c12 [Compound 5, norlichexanthone] |  | 47.4% | 15.3 ± 2.1 µM | 51.0% | ~100 µM | 88 ± 4.9% | 52.6 ± 3% | 86.3 ± 6.3% | 49 ± 1.6% | ~100 µM | < 10% | 20.8 ± 6.5% | 27.9 ± 3.3% |  | IC50 [8]: 97.4 ± 2.2 µM; IC50 [2]: > 100 µM |
| COc1cc(O)c2c(=O)c3c(C)cc(O)cc3oc2c1 [Compound 6, griseoxanthone C] | did not show any statistical effect | 72.9% | 97.3 ± 1.6 µM | 36.7% |  |  |  |  |  |  |  |  |  |  | viability at 24 h, 10 µM [3, 9]: 85.7 ± 5.7%; viability at 24 h, 100 µM [3, 9]: 27.1 ± 2.4%; IC50 at 24 h [3, 10]: 64.7 ± 0.8 µM; viability at 24 h, 10 µM [3, 11]: 86 ± 4.8%; viability at 24 h, 100 µM [3, 11]: 63.3 ± 1.4%; IC50 at 24 h [3, 12]: > 100 µM; inhibition at 100 µM [4, 13]: < 10%; Inhibition of Microbial Growth, C. albicans ([4]; compounds tested at 100 µM): did not affect; inhibition at 100 µM [5, 14]: < 10%; inhibition at 100 µM [6]: < 10% |
